Columns and labels:
Assay type in all cases: biochemical
aggrecanase-1 = target: T1, aggrecanase-1 (Homo sapiens, UniProt O75173); assay: Aggrecanase-1 inhibitory action, Particle Assay (GAG release from aggrecan-containing polyacrylamide particles); settings: 37° C. for 15 hr, read-out: Experimental Example 1 IC50 AG1
T1 sequence (O75173 213-837): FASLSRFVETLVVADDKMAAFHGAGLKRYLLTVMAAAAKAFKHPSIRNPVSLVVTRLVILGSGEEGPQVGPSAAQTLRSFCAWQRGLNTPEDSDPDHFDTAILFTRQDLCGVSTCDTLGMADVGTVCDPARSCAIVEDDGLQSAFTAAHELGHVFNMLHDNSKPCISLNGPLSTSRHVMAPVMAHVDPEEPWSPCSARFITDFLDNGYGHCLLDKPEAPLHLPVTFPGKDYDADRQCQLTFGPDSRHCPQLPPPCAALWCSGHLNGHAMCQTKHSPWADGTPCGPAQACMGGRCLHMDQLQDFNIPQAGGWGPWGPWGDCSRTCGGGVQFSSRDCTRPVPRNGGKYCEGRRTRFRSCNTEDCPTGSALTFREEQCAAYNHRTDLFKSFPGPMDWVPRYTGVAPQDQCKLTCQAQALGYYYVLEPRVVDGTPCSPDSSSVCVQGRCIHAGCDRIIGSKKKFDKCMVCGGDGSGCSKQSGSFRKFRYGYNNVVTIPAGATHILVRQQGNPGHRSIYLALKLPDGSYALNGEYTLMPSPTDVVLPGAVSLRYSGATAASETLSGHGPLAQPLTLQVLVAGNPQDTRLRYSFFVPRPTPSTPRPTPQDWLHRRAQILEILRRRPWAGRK
Procedure, shortened: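 Enzyme and test compound (DMSO dilutions) in Tris-HCl buffer incubated with aggrecan-containing polyacrylamide particles at 37 °C for 15 hr. Released GAG in supernatant quantified with 1,9-dimethylmethylene blue at 595 nm against whale chondroitin sulfate standard; % inhibition versus enzyme-free and inhibitor-free wells gives IC50 (μM).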

Recombinant Human MMP-13 = target: T2, Recombinant Human MMP-13 (Homo sapiens, UniProt P45452); assay: MMP-13 inhibition, MMP-13 specific fluorescent substrate with quencher; settings: synthetic substrate 7-MCA-Pro-CHA-Gly-NVal-His-Ala-DPA, 25° C. for 1 h; read-out: Experimental Example 3 IC50 MMP13
T2 construct: purchased R&D systems 511-MM
Procedure: Inhibitory activity of tested compounds on MMP-13 was measured using MMP-13 specific fluorescent substrate with quencher.
The enzyme and substrate were diluted with Tris-HCl buffer, and test compounds were diluted with dimethyl sulfoxide (DMSO).
Test compounds and the enzyme (Recombinant Human MMP-13: R&D systems, 511-MM) were added into 96-well plate. The reaction was initiated by adding synthetic substrate (7-MCA-Pro-CHA-Gly-NVal-His-Ala-DPA: enzyme systems products, Met-06) into the plate. After incubation at 25° C. for 1 h, the reaction was terminated by addition of reaction terminating solution containing acetic acid. Fluorescence intensity of each well was measured (Ex: 325 nm, Em: 405 nm) and the MMP-13 inhibitory activity of the compound in each well (%) was calculated based on the values of enzyme-free well and inhibitor-free well. The inhibitory activity of the compound was represented as IC50 (μM).

MMP-1 = target: T3, MMP-1 (Homo sapiens, UniProt P03956); assay: MMP-1 inhibitory action, Type I collagen Activity Measurement kit (FITC-labeled collagen type I); settings: 37° C. for 3 hr, read-out: Experimental Example 2 IC50 MMP1
T3 sequence (P03956 100-469): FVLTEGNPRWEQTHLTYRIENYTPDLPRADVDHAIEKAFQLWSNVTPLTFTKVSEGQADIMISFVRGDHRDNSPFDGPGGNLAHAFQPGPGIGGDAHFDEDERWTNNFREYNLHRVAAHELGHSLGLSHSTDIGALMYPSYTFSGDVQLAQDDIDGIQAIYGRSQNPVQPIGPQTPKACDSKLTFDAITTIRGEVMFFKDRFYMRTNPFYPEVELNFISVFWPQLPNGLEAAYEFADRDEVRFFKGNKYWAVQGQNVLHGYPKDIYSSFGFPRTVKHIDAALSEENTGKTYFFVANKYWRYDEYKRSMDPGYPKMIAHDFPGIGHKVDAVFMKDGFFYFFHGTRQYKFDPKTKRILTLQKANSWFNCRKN

Row | Compound | IC50 (aggrecanase-1) [µM] | IC50 (Recombinant Human MMP-13) [µM] | IC50 (MMP-1) [µM]
1 | CN1CCN(C(=O)CN([C@]2(C(=O)O)C[C@H]2c2ccccc2)S(=O)(=O)c2ccc(-c3ccc(Cl)cc3)s2)CC1 [Example 2-17, (1R,2S)-1-{[5-(4-Chloro-phenyl)-thiophene-2-sulfonyl]-[2-(4-methyl-piperazin-1-yl)-2-oxo-ethyl]-amino}-2-phenyl-cyclopropanecarboxylic acid] | ≥ 1 | ≥ 1 | ≥ 10
2 | O=C(O)[C@@]1(N(CCCO)S(=O)(=O)c2ccc(-c3ccc(Cl)cc3)s2)C[C@H]1c1ccccc1 [Example 2-18, (1R,2S)-1-[[5-(4-Chloro-phenyl)-thiophene-2-sulfonyl]-(3-hydroxy-propyl)-amino]-2-phenyl-cyclopropanecarboxylic acid] | ≥ 1 | < 1 | ≥ 10
3 | O=C(OCCN([C@]1(C(=O)O)C[C@H]1c1ccccc1)S(=O)(=O)c1ccc(-c2ccc(Cl)cc2)s1)N1CCOCC1 [Example 2-19, Morpholine-4-carboxylic acid 2-{((1R,2S)-1-carboxy-2-phenyl-cyclopropyl)-[5-(4-chloro-phenyl)-thiophene-2-sulfonyl]-amino}-ethyl ester] | ≥ 1 | < 1 | ≥ 10
4 | O=C(OCCCN([C@]1(C(=O)O)C[C@H]1c1ccccc1)S(=O)(=O)c1ccc(-c2ccc(Cl)cc2)s1)N1CCOCC1 [Example 2-20, Morpholine-4-carboxylic acid 3-{((1R,2S)-1-carboxy-2-phenyl-cyclopropyl)-[5-(4-chloro-phenyl)-thiophene-2-sulfonyl]-amino}-propyl ester] | ≥ 1 | ≥ 1 | ≥ 10
5 | CN1CCN(C(=O)OCCCN([C@]2(C(=O)O)C[C@H]2c2ccccc2)S(=O)(=O)c2ccc(-c3ccc(Cl)cc3)s2)CC1 [Example 2-21, 4-Methyl-piperazine-1-carboxylic acid 3-{((1R,2S)-1-carboxy-2-phenyl-cyclopropyl)-[5-(4-chloro-phenyl)-thiophene-2-sulfonyl]-amino}-propyl ester] | ≥ 1 | ≥ 1 | ≥ 10
6 | O=C1CN(S(=O)(=O)c2ccc(-c3ccc(Cl)cc3)s2)C2(C(=O)O)CC2(c2ccccc2)CN1 (stereo not drawn) [Example 2-25, 1R*,7S*)-2-[5-(4-Chloro-phenyl)-thiophene-2-sulfonyl]-4-oxo-7-phenyl-2,5-diaza-bicyclo[5.1.0]octane-1-carboxylic acid] | ≥ 1 | ≥ 1 | ≥ 10
7 | CN1CC2(c3ccccc3)CC2(C(=O)O)N(S(=O)(=O)c2ccc(-c3ccc(Cl)cc3)s2)CC1=O (stereo not drawn) [Example 2-27, (1R*,7R*)-2-[5-(4-Chloro-phenyl)-thiophene-2-sulfonyl]-5-methyl-4-oxo-7-phenyl-2-,5-diaza-bicyclo[5.1.0]octane-1-carboxylic acid] | ≥ 1 | ≥ 1 | ≥ 10
